Experiments:
[1] = tested on: C. albicans; experiment: Viability of C. albicans; format: cell-based; details: Candida albicans
Experimental: Oxatetradecanoic acids were added (final concentraton=25-500 μM) as a single dose to log phase cultures of C. alibcans grown in SAB at 30° C. (Panels A and B) and to log phase cultures of S. cerevisiae grown in YPD at 30° C. (Panels C and D). The results were compared to the number of viable organisms present in cultures treated with 0.1% EtOH alone. […] A single does of alphotericin B (final concentration=55 μM) was added to parallel cultures which served as positive controls. Assays were done in duplicate. Representative tests are shown.
Saccharomyces cerevisiae strain YM2061 (MATa ura3-52 his3Δ200 ade2-101 lys2-801 met LEU2::pRY181 can1; Flick and Johnston, Mol. Cell. Biol. 10, 4757-4769 (1990), Candida albicans strain B311 (obtained from the American Type Tissue Culture, Rockville, Md.), or Cryptococcus neoformans strain L210425 (a clinical isolate that is part of the permanent culture collection of the Mycology Laboratory, Barnes Hospital, St. Louis, Mo.) were grown overnight at 30 C. The S. cerevisiae strain was incubated in YPD medium (1% bacto-yeast extract, Gibco, Long Island, N.Y.), 2% bacto-peptone (Gibco), 2% dextrose). The C. albicans and C. neoformans strains were grown in Sabouraud's media (SAB; 2% (w/v) dextrose, 1% bacto-peptone). The following morning the cultures were diluted into fresh medium to the desired density at 600 nm (early log phase), and subsequently incubated in a rotary shaker at 30° C. until an A600 =0.5 (mid log phase) was achieved. The culture was then divided into 10 ml aliquots. A single 10 μl aliquot of a stock solution of fatty acid analog (prepared in various concentrations using absolute ethanol) was added to the culture so that the final concentration of the compound was 100-500 μM (T=0). Ten microliters of ethanol alone was added to one 10 ml culture which served as the negative control. Amphotericin B (AmB; in the form of Fungizone, Squibb) was added (final concentration=55 μM) to another culture which served as the positive control. At T=0 and 0.5-24 h after addition of fatty acid analog to the subcultures, an aliquot was removed for determining the density of the subculture at 600 nm. Cell viability was determined at each of these time points by (i) serially diluting the aliquot in 0.15M NaCl and counting cell number in a hemocytometer and (ii) plating 2-3 of the dilutions in triplicate onto plates of SAB/agar (C. albicans and C. neoformans) or YPD/agar (S. cerevisiae). These plates were subsequently incubated at 30° C. for 24-48 hr to allow for the growth of colonies. The data were expressed as the ratio of viable cells/ml in the fatty acid analog treated subculture to the number of viable cells/ml in the negative (ethanol) control culture.

[2] = tested on: HIV-1; details: acutely infected human T lymphocyte cell line; cited from earlier work
[3] = tested on: C. neoformans; experiment: Metabolic stability of O4 and resistance in C. neoformans cultures; format: cell-based, Cryptococcus neoformans
Experimental: Cultreus of C. neoformans were exposed to a single dose of 300 μM O4 or 0.1% EtOH during mid-log phase growth (O4A, EtOH1) as in FIG. 1. Two hours later, an aliquot was removed from the culture and subjected to centrifugation at 1500×g for 10 min. The "used" O4-containing media was added to EtOH-treated cells (O4B). "Fresh" O4 was added to cells (final concentration=300 μM) that had already been exposed to O4 for 2 h (O4C). at 24 H, O4-treated cells were again pelleted and resuspended in "fresh" O4-containing media (final concentration=300 μM (O4E)). The "used" O4 media was added to a fresh culture of untreated cells (O4D) and their growth was compared to an identical population of cells treated with EtOH alone (EtOH2).
A series of tests were conducted to assess the metabolic stability of the compound (FIG. 2). Media was harvested from cells treated with a single dose of 300 μM O4 for 2 hr or for 24 hr and added to a exponentially growing culture of C. neoformans that had never been exposed to fatty acid analog. 100 fold and 10 fold decreases (respectively) in viable cell number were observed over the ensuing 2 hr (O4B and O4D in FIG. 2). […] Exponentially growing cultures were also exposed to a single 300 μM dose of O4, a single dose of 0.1% EtOH, or to no additions. Aliquots of each of the cultures were removed 4 and 24 hr later and plated on Sabouraud/agar. […]

In the case of `CCCCCCCCCCOCCC(=O)O` [O4, 4-oxatetradecanoic acid], the log reduction at 300 µM ([1]; 300 μM, 2 hr after addition, read-out: reductions in the number of viable C. albicans) is given as < 0.699, the log reduction at 500 µM ([1]; 500 μM, read-out: reduction in the number of viable organisms (C. albicans)) is given as 1 to 2 and the HIV-1 replication [2] is given as “inhibits HIV-1 replication”. For the same compound, the log reduction at 300 µM ([3]; Cryptococcus neoformans, cells already exposed for 2 hr or 24 hr (O4C, O4E), read-out: further reduction in viable cell number on fresh 300 μM media (converted)) was 0.699 and the “resistance or tolerance of cells after exposure” value ([3]; colonies from cultures exposed 4 and 24 hr, re-exposed to 300 μM) was “do not become resistant or tolerant”.

Reference: patent US5236955A, “Anti-fungal agent” (Washington University, priority 1992, dated 1993)
